Source: US20040097408A1, “Compounds regulating cell proliferation and differentiation” (priority 2001, published 2004)
Where “and” joins values, the source holds several entries; their conditions need not be identical. Identical values can stand only once.

What was measured:
[1] = test system: EpH4-EV and EpH4-A6 cells; assay: intracellular colocalization with Mitotracker Red / Lysotracker Red / Hoescht; type: cell-based, mouse; conditions: 3 μM F16, 2 hours
Description: 2×10^4 EpH4-EV and EpH4-A6 cells were seeded in 6 well chamber slides. Next morning, cells were left untreated or treated with F16 at 3 μM for 2 hours. Cells were incubated with Hoescht stain for 30 minutes and then visualized under the microscope. Hoescht stain specifically stains the nuclei of cells. A mitochondrial specific stain, Mitotracker Red (Molecular Probes), was added to the medium to stain mitochondria, and Lysotracker Red to stain lysosomes and acidic compartments, according to manufacturer procedure. Hoescht stain was also included in the medium (together with the other stains). Cells were photographed under Axioskop (Zeiss) using a Spot Camera (Diagnostic Instruments).

EpH-A6 cells = assay: cell cycle phases by BrdU incorporation / FACS; type: cell-based, mouse; conditions: 3 μM F16, 30-36 hr, FIG. 5
Description: (§1) The percentage of cells in the different phases of the cell cycle was assessed by measuring BrdU incorporation into the DNA of the cells. BrdU incorporation into DNA of untreated or F16 treated (3 μM/30-36 hr) EpH-EV and EpH-A6 cells was assessed by FACS as follows. After F16 or mock treatment, the cells were pulsed with BrdU (20 μM) for 1 hour and then fixed in 70% ethanol at −20° C. overnight. Next morning cells were washed twice with 1×PBS and the DNA was denatured by incubation of the cells in 2N HCl/0.5% Triton X-100. The cells were then washed twice in 0.1M Na2B2O7, and once in PBS. The cells were resuspended in PBS, incubated with 20 μL of anti-BrdU/FITC(Becton Dickinson) for 1 hour and subsequently washed with 1×PBS and resuspended in PBS. RNA was digested with RNaseA (1 μL of 10 mg/mL stock) at 37° C. for 30 minutes. Finally, the cells were diluted with 1 mL of 5 μg/mL propidium iodide/PBS and incubated on ice for 15 minutes. The labeled cells were analyzed using the FACSCalibur (Becton Dickinson).

[2] = test system: EpH4-EV and EpH4-A6 cells; assay: superoxide levels by dihydroethidium flow cytometry; type: cell-based, mouse; conditions: 3 μM F16, FIG. 11
Description: Besides ATP synthesis, the mitochondria plays different roles in cell physiology, among them control of the redox state of cells. Changes in the level of superoxide anion as an indicator of alterations in reactive oxygen intermediates generation by mitochondria of cells treated with F16 was examined by flow cytometry. Changes in the levels of intracellular oxidants were investigated using the fluorescent probe dihydroethidium (DHE) (Molecular Probes). Superoxide anion can oxidate DHE to ethidium bromide (EtBr) which binds to DNA. […] EpH4-EV and EpH4-A6 cells were grown in the absence or in the presence of 3 μM F16 for 15, 24, 48 and 72 hr. cells were resuspended and diluted to 10^6 cells/mL. DHE was added to the cell suspension to a final 2 μM in each case. Cells were incubated at 37° C. for 15 min and immediately analysed using flow cytometry.

[3] = test system: F16-resistant normal mammary epithelial and human cancer cell lines; assay: F16 accumulation in the presence of MDR-1 and MRP1 inhibitors; type: cell-based; conditions: 3 μM F16 with 50 μM verapamil/1 mM probenecid
Description: To evaluate the effect of multi-drug resistance pumps on the F16-insensitive cells, inhibitors of MDR-1 and MRP1 were utilized (Lizardet al. (1994) Cell Biol Toxicol (10) 399-406).

A6 cells = assay: apoptosis time course (DNA fragmentation, propidium iodide staining, cytochrome c release); type: cell-based, mouse; conditions: 3 μM F16, 48, 60 and 72 hr, FIG. 6
Description: The DNA fragmentation assay was conducted by isolating DNA from 1×10^6 of untreated or F16 treated for 48, 60 and 72 hr using Suicide-Track TM (Oncogene) according to manufacturer's procedure. Samples were resolved by agarose gel electrophoresis and ethidium-bromide stained. Cytochrome c release was measured by immunofluorescence as follows. Untreated or F16-treated A6 cells were washed and fixed with ice-cold 3.7% paraformaldehyde at RT, permeabilized for with ice-cold 0.01% (v/v) Nonidet P-40 for 20 min and incubated with 0.5% BSA/PB. Immunodetection was performed with monoclonal anti-cytochrome c antibody (PharMingen) and secondary anti-mouse-TRITC conjugated antibody. Cells were photographed under Axioskop using a Spot Camera (Diagnostic Instruments).

AC816 = assay: cell cycle phases by BrdU incorporation / FACS; type: cell-based, mouse; conditions: F16 3 μM, 30 hr
Description: as §1
(§2) The effect of F16 (3 μM) on BrdU incorporation into DNA of various Neu-induced, Ras-induced and Myc-induced tumor cells lines was examined using the same technique. The results, which are shown in Table 3, indicate that, except for 16MB9a, a myc tumor cell line that is not affected by F16, the other cell lines, all of which are sensitive to F16 show, as expected, a decrease in the percentage of cells in the S phase and an increase in the percentage of cells in G1 after 30 hr of incubation in medium containing F16 (3 μM). In some cases, an increase in the amount of cells in G2 phase was observed. This may reflect the heterogeneity of the tumor cells, some of which may have acquired defects in various cell cycle regulators as secondary events.

NAF = assay: cell cycle phases by BrdU incorporation / FACS; type: cell-based, mouse; conditions: F16 3 μM, 30 hr
Description: as §1, §2

NF980 = assay: cell cycle phases by BrdU incorporation / FACS; type: cell-based, mouse; conditions: F16 3 μM, 30 hr
Description: as §1, §2

[4] = test system: Myc (16MB9a, a myc tumor cell line); assay: cell cycle phases by BrdU incorporation / FACS; type: cell-based, mouse; conditions: Myc tumor cell line (16MB9a); F16 3 μM, 30 hr
Description: as §1, §2

SH1.1 = assay: cell cycle phases by BrdU incorporation / FACS; type: cell-based, mouse; conditions: F16 3 μM, 30 hr
Description: as §1, §2

n-Neu = assay: cell cycle phases by BrdU incorporation / FACS; type: cell-based, mouse; conditions: F16 3 μM, 30 hr
Description: as §1, §2

In the case of `C[n+]1ccc(/C=C/c2c[nH]c3ccccc23)cc1.[I-]` [F16], the “intracellular localization of F16 staining” value [1] is reported as “overlapped with the mitochondrial staining, but not with the lysosomal staining”, the “percentage of cells in G1 phase” value (EpH-A6 cells) is reported as “increase” and the “percentage of cells in the S phase” value (EpH-A6 cells) is reported as “dramatic decrease”. For the same compound, the “superoxide level (ethidium/DNA fluorescence)” value [2] was “increase in the ethidium/DNA fluorescence”, the “F16 mitochondrial accumulation with MDR-1/MRP1 inhibitors” value [3] was “did not result in F16 mitochondrial accumulation” and the “cell death on prolonged incubation” value (A6 cells) was “increased cell death”. The “With F16 % G1” value (AC816) was 96.8% and 95.1%, the “With F16 % G2” value (AC816) was 2.7% and 2.8% and the “With F16 % S” value (AC816) was 0.1% and 0.2%. The “With F16 % G1” value (NAF) was 86.8%, the “With F16 % G2” value (NAF) was 3.6% and the “With F16 % S” value (NAF) was 4.7%. The “With F16 % G1” value (NF980) was 68.6% and 69.6%, the “With F16 % G2” value (NF980) was 12.4% and 8.9% and the “With F16 % S” value (NF980) was 17.3% and 17.0%. For the same compound, the “With F16 % G1” value [4] was 82.7% and 83.8%, the “With F16 % G2” value [4] was 1.5% and the “With F16 % S” value [4] was 12.8% and 12.7%. The “With F16 % G1” value (SH1.1) was 81.3% and 79.7%, the “With F16 % G2” value (SH1.1) was 10.4% and 13.2% and the “With F16 % S” value (SH1.1) was 7.1%. The “With F16 % G1” value (n-Neu) was 64.5% and 61.5%, the “With F16 % G2” value (n-Neu) was 15.4% and 17.8% and the “With F16 % S” value (n-Neu) was 18.2% and 19.6%.
